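Grown in 96-well plates, cells were treated for 48 hours with each compound at five concentrations. Insufficient inhibition: endpoint recorded as highest concentration tested. The concentration for 50% growth inhibition is given as GI50. At the TGI there is no net growth.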
What was measured:
Test in all cases: NCI anticancer screen, dose series, 48 h
DLD-1 colon = system: DLD-1 colon
LXFL 529 NSCLC = system: LXFL 529 NSCLC
KM20L2 colon = system: KM20L2 colon
SNB-78 CNS = system: SNB-78 CNS
DMS 273 small cell lung = system: DMS 273 small cell lung
RXF-631 renal = system: RXF-631 renal
M19-MEL melanoma = system: M19-MEL melanoma
PC-3 prostate = system: PC-3 prostate
MDA-N = system: MDA-N

| SMILES | TGI (DLD-1 colon) [µM] | TGI (LXFL 529 NSCLC) [µM] | TGI (KM20L2 colon) [µM] | TGI (SNB-78 CNS) [µM] | TGI (DMS 273 small cell lung) [µM] | TGI (RXF-631 renal) [µM] | TGI (M19-MEL melanoma) [µM] | further results |
| --- | --- | --- | --- | --- | --- | --- | --- | --- |
| CCN(CC)C(=O)C/C(C)=N/NC(=O)c1ccncc1 | > 100 | > 100 | > 100 | > 100 | > 100 | – | – | – |
| COc1ccc(C(=O)O)c(Cc2cccc3ccccc23)c1 | > 100 | > 100 | > 100 | – | > 100 | > 100 | > 100 | – |
| Cc1cccc(N2C(=O)C(Cl)=C(Cl)C2=O)c1 | > 60.7 | > 56.3 | > 100 | > 100 | > 100 | – | > 100 | – |
| O=c1[nH]c(=O)n(C2CC(O)C(CS)O2)cc1F (centres undefined) | > 100 | – | > 100 | > 100 | – | – | > 100 | TGI (PC-3 prostate): > 100 µM; TGI (MDA-N): > 100 µM |
| COC(=O)C1=C(c2ccc3c(c2)OCO3)O[C@H](c2ccc3c(c2)OCO3)[C@H]1COC(C)=O | > 100 | > 100 | > 100 | > 100 | > 100 | – | > 100 | – |
| Cc1cc(NS(=O)(=O)c2ccc(NC(=O)c3cccc4c(=O)c5ccccc5[nH]c34)cc2)no1 | > 100 | 89.2 | > 100 | > 100 | – | – | > 100 | – |
| O=S(O)CCCCSSCCCCSSCCCCS(=O)O | > 100 | 28.4 | > 100 | 70.5 | > 100 | > 100 | > 100 | – |
| CC(=O)[O][Hg][c]1c(C)c(C)c(C)c(C)c1C | – | – | – | – | – | – | – | GI50 (PC-3 prostate): 2 µM; TGI (PC-3 prostate): 5.68 µM; GI50 (MDA-N): 1.37 µM; TGI (MDA-N): 2.69 µM |
| O=C(O)c1cc(N=Nc2ccc([As](=O)(O)O)cc2)ccc1O | – | – | – | – | – | – | – | TGI (PC-3 prostate): > 100 µM; TGI (MDA-N): > 100 µM |
| CCOC(=O)NC(=O)c1cn(CCCOC(=O)NCCCCCCNC(=O)OCCCn2c(=O)c(C(=O)NC(=O)OCC)cn(C)c2=O)c(=O)n(C)c1=O | > 100 | > 100 | > 100 | – | > 100 | > 100 | > 100 | – |
| C#CC[C@]12CC(=O)CC[C@H]1CC(=O)C2 | > 100 | > 100 | > 100 | > 100 | > 100 | > 100 | > 100 | – |
| Cc1cc(C2CCCCC2)n(O)c(=O)c1 | > 100 | > 100 | > 100 | – | – | > 100 | > 100 | GI50 (PC-3 prostate): 3.02 µM; TGI (PC-3 prostate): > 100 µM |
| CCOC(=O)[C@H]1Nc2ccc(C)cc2C2c3ccccc3CC21 (some centres undefined) | > 100 | > 100 | > 100 | > 100 | > 100 | – | > 100 | – |
| O=C(NC1CCCCCC1)C1C(=O)N(C2CCCCCC2)C(=O)/C1=N\O (centres undefined) | > 100 | > 100 | 49 | > 100 | – | – | 75.6 | – |
| CC#CC(=O)Nc1ccccc1CC(c1c[nH]c2ccccc12)c1c[nH]c2ccccc12 | 36.3 | 38 | – | 46.1 | 32.7 | – | 31.2 | – |
| CN(C)C(=S)/N=c1\ss/c(=N\C(=S)N(C)C)n1-c1ccc2c(c1)OCO2 | – | – | > 100 | – | > 100 | – | – | – |
| N#Cc1cnsc1 | > 100 | > 100 | > 100 | > 100 | > 100 | > 100 | > 100 | – |
| O=C(/C=C/c1ccccc1Cl)c1ccccc1Cl | 33.4 | 32 | 33.3 | 69.2 | 31.1 | – | 61 | – |
| CC(=O)SCCC1c2[nH]c3ccccc3c2CCN1O (centres undefined) | > 100 | > 100 | > 100 | – | > 100 | – | > 100 | – |
| CCCN(CCCCC(NC(C)=O)C(=O)NCc1ccccc1)C(=O)N(CCCl)N=O (centres undefined) | > 100 | > 100 | > 100 | > 100 | > 100 | > 100 | > 100 | TGI (PC-3 prostate): > 100 µM; TGI (MDA-N): > 100 µM |
| Cc1ccc(N=NC(C(=O)c2ccccc2)C(=O)c2ccccc2)cc1 | 76 | > 100 | 60.9 | – | 58.8 | > 100 | 41.2 | – |
| CC(C)=[CH][Sb]([Br])([CH]=C(C)C)([CH]=C(C)C)[CH]=C(C)C | > 100 | > 100 | > 100 | – | 56.8 | – | > 100 | GI50 (DLD-1 colon): 37.3 µM; GI50 (LXFL 529 NSCLC): 6.58 µM; GI50 (KM20L2 colon): 13.1 µM; GI50 (M19-MEL melanoma): 6.14 µM; GI50 (DMS 273 small cell lung): 5.98 µM |
| COc1cc([N+](=O)[O-])ccc1NC(=O)C(F)(F)F | – | – | – | – | – | – | – | TGI (PC-3 prostate): > 100 µM; TGI (MDA-N): > 100 µM |

| SMILES | TGI (DLD-1 colon) [µM] | TGI (LXFL 529 NSCLC) [µM] | TGI (KM20L2 colon) [µM] | TGI (SNB-78 CNS) [µM] | TGI (DMS 273 small cell lung) [µM] | TGI (RXF-631 renal) [µM] | TGI (M19-MEL melanoma) [µM] | further results |
| --- | --- | --- | --- | --- | --- | --- | --- | --- |
| N#CCCN(c1ccc(/C=C2\N=C(c3ccc(Cl)cc3)OC2=O)cc1)S(=O)(=O)c1ccccc1 | > 100 | > 100 | > 100 | – | > 100 | > 100 | > 100 | – |
| CCCCCCCCCCCCCCCCOP(=O)(O)Oc1ccc(/C=C\c2ccc(OP(=O)(O)OCCCCCCCCCCCCCCCC)cc2)cc1 | > 100 | > 100 | > 100 | 91.9 | 62.4 | > 100 | > 100 | – |
| COc1ccc(-c2cc3c(nn2)-c2ccccc2C3=O)cc1 | – | – | – | – | – | – | – | GI50 (PC-3 prostate): > 100 µM; TGI (PC-3 prostate): > 100 µM; TGI (MDA-N): > 10 µM |
| CC(=O)NC(CCCN)C(=O)NCc1ccccc1 (centres undefined) | > 100 | > 100 | > 100 | > 100 | > 100 | – | > 100 | – |
| COc1cc(Cc2cc(OC)c(OC)c(OC)c2)ccc1O | > 100 | > 100 | > 100 | > 100 | – | – | > 100 | – |
| COc1cc(C2c3cc4c(cc3[C@H](OCCN(C)C)[C@@H]3COC(=O)C23)OCO4)cc(OC)c1O (some centres undefined) | 3.96 | 28 | 2.98 | > 93.2 | 1.31 | 1.07 | 4.79 | TGI (PC-3 prostate): 81.1 µM; TGI (MDA-N): 30 µM |
| O=C(O)C(Sc1ccc(Cl)cc1)Sc1ccc(Cl)cc1 | – | – | – | – | – | – | – | TGI (PC-3 prostate): > 100 µM; TGI (MDA-N): > 100 µM |
| COC(=O)c1cc2c(c(C(=O)OC)c1O)C(=O)C=CC2=O | > 46.1 | 9.1 | > 56.4 | > 66.8 | > 71.6 | > 71.2 | > 58.5 | GI50 (DLD-1 colon): > 9.1 µM; GI50 (LXFL 529 NSCLC): 4.16 µM; GI50 (KM20L2 colon): > 9.1 µM; GI50 (RXF-631 renal): > 9.1 µM; GI50 (M19-MEL melanoma): > 9.1 µM; GI50 (SNB-78 CNS): > 9.1 µM; GI50 (DMS 273 small cell lung): > 9.1 µM |
| CCc1cccc(C)c1NC(C)=O | > 100 | > 100 | > 100 | > 100 | > 100 | > 100 | > 100 | – |
| Cc1ccc(C(=O)/C=C/c2ccccc2O)c(C)c1 | > 100 | > 100 | > 100 | > 100 | > 100 | – | 3.07 | – |
| N#CCCN(CCC#N)c1ccc(/C=C2\N=C(CN3C(=O)c4ccccc4C3=O)OC2=O)cc1 | – | > 100 | > 100 | – | > 100 | > 100 | > 100 | – |
| Cc1ccc(NC(=O)C2C(=O)N(c3ccc(C)c(C)c3)C(=O)/C2=N/O)cc1C (centres undefined) | > 100 | > 100 | > 100 | > 100 | > 100 | > 100 | – | – |
| COC(=O)C(=O)C(C(=O)C=C(C)C)C(=O)C(=O)Nc1ccc(Cl)cc1C (centres undefined) | > 100 | > 100 | > 100 | – | > 100 | > 100 | > 100 | – |
| CSc1ccc(/C=C2/C[N+](C)(C)C/C(=C/c3ccc(SC)cc3)C2=O)cc1 | 22.8 | – | – | > 100 | – | > 100 | 19.8 | – |
| N#CCCN(CCC#N)c1ccc(C(=O)NN)cc1 | > 100 | > 100 | > 100 | > 100 | > 100 | > 100 | > 100 | – |
| CC(C)=CC(=O)N1CCN(C(=O)C=C(C)C)CC1 | > 100 | > 100 | > 100 | > 100 | > 100 | > 100 | > 100 | – |
| CN(C)C(=S)SN(C)C(=O)Nc1ccccc1 | > 100 | > 100 | > 100 | > 100 | 77.6 | > 100 | > 31.6 | TGI (PC-3 prostate): > 100 µM; TGI (MDA-N): 43.3 µM |
| NCCCNCCSSCCCCS(=O)O | > 100 | 92.2 | > 100 | > 100 | > 100 | > 100 | 40.5 | – |
| CCCCCCCCCCC(O)C1CCC(C2CCC(C(O)CCCCC(O)CCCCCC(O)CC3=CC(C)OC3=O)O2)O1 (centres undefined) | – | – | – | – | – | – | – | GI50 (PC-3 prostate): 2.79 µM; TGI (PC-3 prostate): > 25 µM; GI50 (MDA-N): > 25 µM; TGI (MDA-N): > 25 µM |
| Cc1cccc(C(C)(C)C)c1NC(=O)CCc1n[nH]c(=S)o1 | > 100 | > 100 | > 100 | > 100 | > 100 | – | > 100 | – |
| COC(=O)C(=O)C(C(=O)C(=O)Nc1ccc(C)cc1C)c1nc2ccccc2[nH]c1=O (centres undefined) | > 100 | > 100 | > 100 | > 100 | – | > 100 | > 100 | – |
| CSc1nc(NC2OC(COC(C)=O)C(OC(C)=O)C(OC(C)=O)C2OC(C)=O)c2c(OC(C)=O)c(C)c(=O)oc2n1 (centres undefined) | > 100 | > 100 | > 100 | > 100 | – | – | > 100 | – |
| O=C(CC(=O)N1N=C(c2ccccc2)C(N=Nc2ccc(Cl)cc2)C1=O)Nc1ccccc1Cl (centres undefined) | > 100 | > 100 | > 100 | > 100 | > 100 | > 100 | > 100 | – |

— PubChem BioAssay (NCI)
